Measurements published in patent US5262417A, “Antibacterial quinolone compounds” (The Upjohn Company, priority 1991, dated 1993).
Values after ≈ are worked out from the molar mass of the structure shown. Like-named read-outs stand apart in the source and are kept apart here. Each block holds one compound with its values, some of them ahead of it.

Tests used:
Experiment in all cases: Minimum inhibitory concentration (MIC) by agar dilution
Assay type in all cases: cell-based
Enterobacter cloacae = test system: Enterobacter cloacae
Method: (§1) Briefly, MIC values are determined in unsupplemented Mueller Hinton Agar (MHA). The compounds tested are diluted serially into molten MHA at 47° C. The agar is poured into petri dishes and allowed to harden. The various bacteria used for testing are grown overnight on MHA at 35° C. and transferred to Trypticase soy broth (TSB) until a turbidity of 0.5 McFarland standard is obtained. The bacteria are diluted one to 20 in TSB and inoculated on the plates (1 μl using a Steers replicator).
as §1, with “Compounds of this invention can also be tested for in vitro antimicrobial activity using standard testing procedures such as the determination of minimum inhibitory concentration (MIC) by agar dilution as described in "Methods for Dilution Antimicrobial Susceptibility Tests for Bacteria That Grow Aerobically" (MFT) published Jan. […] Briefly,” for “Briefly,”, “(1μl” for “(1 μl”

Klebsiella pneumoniae = test system: Klebsiella pneumoniae
Method: as §1, with “The antibacterial activity of the compounds of Formula IC was determined by using standard testing procedures such as the determination of minimum inhibitory concentration (MIC) by agar dilution as described in "Methods for Dilution Antimicrobial Susceptibility Tests for Bacteria That Grow Aerobically" (MFT) published January 1983 by the National Committee for Clinical Laboratory Standards, 771 East Lancaster Avenue, Villanova, Pa. 19084, USA. Briefly,” for “Briefly,”
(§2) Compounds of this invention can also be tested for in vitro antimicrobial activity using standard testing procedures such as the determination of minimum inhibitory concentration (MIC) by agar dilution as described in "Methods for Dilution Antimicrobial Susceptibility Tests for Bacteria That Grow Aerobically" (MFT) published Jan. 1983 by the National Committee for Clinical Laboratory Standards, 771 East Lancaster Avenue, Villanova, Penna. 19084, USA. Briefly, MIC values are determined in unsupplemented Mueller Hinton Agar (MHA). The compounds tested are diluted serially into molten MHA at 47° C. The agar is poured into petri dishes and allowed to harden. The various bacteria used for testing are grown overnight on MHA at 35° C. and transferred to Trypticase soy broth (TSB) until a turbidity of 0.5 McFarland standard is obtained. The bacteria are diluted one to 20 in TSB and inoculated on the plates (1μl using a Steers replicator). […] The MIC test results of selected of Formula B compounds of this invention are found in Tables B2-B9.

Streptococcus pyogenes = settings: Streptococcus pyogenes
Method: (§3) The antibacterial activity of the compounds of Formula IC was determined by using standard testing procedures such as the determination of minimum inhibitory concentration (MIC) by agar dilution as described in "Methods for Dilution Antimicrobial Susceptibility Tests for Bacteria That Grow Aerobically" (MFT) published January 1983 by the National Committee for Clinical Laboratory Standards, 771 East Lancaster Avenue, Villanova, Pa. 19084, USA. Briefly, MIC values are determined in unsupplemented Mueller Hinton Agar (MHA). The compounds tested are diluted serially into molten MHA at 47° C. The agar is poured into petri dishes and allowed to harden. The various bacteria used for testing are grown overnight on MHA at 35° C. and transferred to Trypticase soy broth (TSB) until a turbidity of 0.5 McFarland standard is obtained. The bacteria are diluted one to 20 in TSB and inoculated on the plates (1 μl using a Steers replicator).
as §2

[1] = test system: Acinetobacter calcoaceticus; settings: Acinetobacter calcoaceticus
Method: as §3, §2

[2] = test system: Staphylococcus epidermidis; settings: 20 h
Method: as §3, §2

Pseudomonas aeruginosa = settings: Pseudomonas aeruginosa
Method: as §3, §2

Streptococcus pneumoniae = settings: Streptococcus pneumoniae
Method: as §3, §2

Serratia marcescens = settings: 20 h
Method: as §3, §2

Citerobacter freundii = test system: Citerobacter freundii
Method: as §3, §2

Staphylococcus aureus = settings: Staphylococcus aureus
Method: as §3, §2

Proteus penneri = settings: Proteus penneri
Method: as §3, §2

Streptococcus faecalis = settings: Enterococcus faecalis
Method: as §3, §2

Escherichia coli = settings: Escherichia coli
Method: as §3, §2

[3] = 20 h, read-out: MINIMUM INHIBITORY CONCENTRATION
[4] = read-out: MINIMUM INHIBITORY CONCENTRATION

Structure (SMILES): NC1CCN(c2c(F)cc3c(=O)c(C(=O)O)cn(C45CC(C4)C5)c3c2F)C1 (racemic) [No. 84, 7-(3-amino-1-pyrrolidinyl)-1-(bicyclo[1.1.1]pent-1-yl)-1,4-dihydro-6,8-difluoro-4-oxo-3-quinolinecarboxylic acid]
MIC (Enterobacter cloacae; [3]): 0.06 mg/L (≈ 0.16 µM) | MIC (Klebsiella pneumoniae; [3]): 0.06 mg/L (≈ 0.16 µM) | MIC (Streptococcus pyogenes; 20 h, read-out: MINIMUM INHIBITORY CONCENTRATION, Cult No. 152, MHA): 0.25 mg/L (≈ 0.666 µM) | MIC ([1]; 20 h, read-out: MINIMUM INHIBITORY CONCENTRATION, Cult No. 12170, MHA): 0.125 mg/L (≈ 0.333 µM) | MIC [2, 4]: 0.125 mg/L (≈ 0.333 µM) | MIC (Pseudomonas aeruginosa; 20 h, read-out: MINIMUM INHIBITORY CONCENTRATION, Cult No. 6676, MHA): 1 mg/L (≈ 2.66 µM) | MIC (Pseudomonas aeruginosa; 20 h, read-out: MINIMUM INHIBITORY CONCENTRATION, Cult No. 9191, MHA): 0.5 mg/L (≈ 1.33 µM) | MIC (Pseudomonas aeruginosa; 20 h, read-out: MINIMUM INHIBITORY CONCENTRATION, Cult No. 12120, MHA): 0.5 mg/L (≈ 1.33 µM) | MIC (Streptococcus pneumoniae; 20 h, read-out: MINIMUM INHIBITORY CONCENTRATION, Cult No. 41, MHA): 0.5 mg/L (≈ 1.33 µM) | MIC (Serratia marcescens; [4]): 0.125 mg/L (≈ 0.333 µM) | MIC (Citerobacter freundii; [3]): 0.36 mg/L (≈ 0.959 µM) | MIC (Staphylococcus aureus; 20 h, read-out: MINIMUM INHIBITORY CONCENTRATION, Cult No. 6685, MHA): 0.06 mg/L (≈ 0.16 µM) | MIC (Staphylococcus aureus; 20 h, read-out: MINIMUM INHIBITORY CONCENTRATION, Cult No. 9213, MHA): 0.125 mg/L (≈ 0.333 µM) | MIC (Staphylococcus aureus; 20 h, read-out: MINIMUM INHIBITORY CONCENTRATION, Cult No. 9218, MHA): 0.125 mg/L (≈ 0.333 µM) | MIC (Staphylococcus aureus; 20 h, read-out: MINIMUM INHIBITORY CONCENTRATION, Cult No. 9271, MHA): 0.125 mg/L (≈ 0.333 µM) | MIC (Proteus penneri; 20 h, read-out: MINIMUM INHIBITORY CONCENTRATION, Cult No. 9679, MHA): 0.25 mg/L (≈ 0.666 µM) | MIC (Streptococcus faecalis; [3]): 0.5 mg/L (≈ 1.33 µM) | MIC (Escherichia coli; 20 h, read-out: MINIMUM INHIBITORY CONCENTRATION, Cult No. 6674, MHA): 0.03 mg/L (≈ 0.0799 µM) | MIC (Escherichia coli; 20 h, read-out: MINIMUM INHIBITORY CONCENTRATION, Cult No. 9451, MHA): 0.06 mg/L (≈ 0.16 µM) | MIC (Escherichia coli; 20 h, read-out: MINIMUM INHIBITORY CONCENTRATION, Cult No. 9855, MHA): 0.06 mg/L (≈ 0.16 µM) | MIC (Escherichia coli; 20 h, read-out: MINIMUM INHIBITORY CONCENTRATION, Cult No. 9952, MHA): 0.03 mg/L (≈ 0.0799 µM)

MIC (Enterobacter cloacae; UC9382, 20 h, E. cloacae UC 9382, Table CI, read-out: Minimum Inhibitory Concentration): 1 mg/L (≈ 2.88 µM) | MIC (Klebsiella pneumoniae; UC12081, 20 h, K. pneumoniae UC 12081, Table CI, read-out: Minimum Inhibitory Concentration): 1 mg/L (≈ 2.88 µM) | MIC (Streptococcus pyogenes; UC152, 20 h, S. pyogenes UC 152, Table CI, read-out: Minimum Inhibitory Concentration): 16 mg/L (≈ 46.1 µM) | MIC ([1]; UC12170, 20 h, A. calcoaceticus UC 12170, Table CI, read-out: Minimum Inhibitory Concentration): 4 mg/L (≈ 11.5 µM) | MIC ([2]; S. epidermidis 30031, Table CI, read-out: Minimum Inhibitory Concentration): 2 mg/L (≈ 5.76 µM) | MIC (Pseudomonas aeruginosa; UC6676, 20 h, Ps. aeruginosa UC 6676, Table CI, read-out: Minimum Inhibitory Concentration): 8 mg/L (≈ 23 µM) | MIC (Pseudomonas aeruginosa; UC9191, 20 h, Ps. aeruginosa UC 9191, Table CI, read-out: Minimum Inhibitory Concentration): 8 mg/L (≈ 23 µM) | MIC (Pseudomonas aeruginosa; UC12120, 20 h, Ps. aeruginosa UC 12120, Table CI, read-out: Minimum Inhibitory Concentration): 4 mg/L (≈ 11.5 µM) | MIC (Streptococcus pneumoniae; UC41, 20 h, S. pneumoniae UC 41, Table CI, read-out: Minimum Inhibitory Concentration): 32 mg/L (≈ 92.1 µM) | MIC (Serratia marcescens; S. marcescens, UC number not given, Table CI, read-out: Minimum Inhibitory Concentration): 0.06 mg/L (≈ 0.173 µM) | MIC (Citerobacter freundii; Citrobacter freundii, UC3507, 20 h, C. freundii UC 3507, Table CI, read-out: Minimum Inhibitory Concentration): 0.5 mg/L (≈ 1.44 µM) | MIC (Staphylococcus aureus; UC6685, 20 h, S. aureus UC 6685, Table CI, read-out: Minimum Inhibitory Concentration): 4 mg/L (≈ 11.5 µM) | MIC (Staphylococcus aureus; UC9213, 20 h, S. aureus UC 9213, Table CI, read-out: Minimum Inhibitory Concentration): 8 mg/L (≈ 23 µM) | MIC (Staphylococcus aureus; UC9218, 20 h, S. aureus UC 9218, Table CI, read-out: Minimum Inhibitory Concentration): 8 mg/L (≈ 23 µM) | MIC (Staphylococcus aureus; UC9271, 20 h, S. aureus UC 9271, Table CI, read-out: Minimum Inhibitory Concentration): 8 mg/L (≈ 23 µM) | MIC (Proteus penneri; UC9679, 20 h, P. penneri UC 9679, Table CI, read-out: Minimum Inhibitory Concentration): 0.5 mg/L (≈ 1.44 µM) | MIC (Streptococcus faecalis; UC9217, 20 h, S. faecalis UC 9217, Table CI, read-out: Minimum Inhibitory Concentration): 32 mg/L (≈ 92.1 µM) | MIC (Escherichia coli; UC6674, 20 h, E. coli UC 6674, Table CI, read-out: Minimum Inhibitory Concentration): 1 mg/L (≈ 2.88 µM) | MIC (Escherichia coli; UC9451, 20 h, E. coli UC 9451, Table CI, read-out: Minimum Inhibitory Concentration): 0.5 mg/L (≈ 1.44 µM) | MIC (Escherichia coli; UC9855, 20 h, E. coli UC 9855, Table CI, read-out: Minimum Inhibitory Concentration): 2 mg/L (≈ 5.76 µM) | MIC (Escherichia coli; UC9952, 20 h, E. coli UC 9952, Table CI, read-out: Minimum Inhibitory Concentration): 0.5 mg/L (≈ 1.44 µM)
Structure (SMILES): C#CCn1cc(C(=O)O)c(=O)c2cc(F)c(N3CCC(N)C3)c(F)c21 (racemic) [D]
